Experiments:
[1] = test system: porcine aortic wall exposed to type I collagenase; assay: Tissue resistance to collagenase degradation after treatment; assay type: biochemical; settings: type I collagenase 150 U/mL, 24 hours, 37° C.; fresh sample over 85% digested
Protocol: Tissue resistance to collagenase degradation after treatment with various reagents is discussed. Specifically, samples of porcine aortic wall were either left untreated (fresh) or treated with Glut alone or Glut followed by tannic acid (TA). Glut treatment was performed with 0.6% (w/v) Glut for 1 day, and then 0.2% (w/v) Glut for 7 days at room temperature; Glut/TA treatment was performed with 0.6% (w/v) Glut for 1 day, and then 0.2% (w/v) Glut for 7 days at room temperature followed by 0.15% (w/v) TA for 4 days at 37° C. The treated samples were rinsed 3 times (1 hour each) in 100 mL water, and lyophilized to record dry weight. Samples with the amount of ˜15 to 25 mg dry weight were immersed in 1.2 mL of type I collagenase (150 U/mL) dissolved in 50 mM Tris buffer, 10 mM CaCl2, pH 7.4, and incubated at 37° C. with orbital shaking at 650 rpm for 24 hours. Following this exposure to collagenase, samples were centrifuged (10000 rpm, 10 minutes, 4° C.), individually rinsed three times in 1 mL water, lyophilized to obtain dry weight after collagenase, and the percent of digested tissue was calculated.
The percentage of tissue digestion was compared in graphical format in FIG. 4.

[2] = test system: porcine carotid arteries exposed to porcine pancreatic elastase; assay: Tissue resistance to elastase degradation after treatment; assay type: biochemical; settings: 0.6% Glut, 0.15% PGG, 20 minutes total treatment (cocktail 20 min or 10 min + 10 min sequential); elastase 3 units/mL 24 hrs 37° C.; compared to saline controls
Protocol: This example involves model results based on in vitro treatment of tissue samples for period of time that are realistic for in vivo applications. Specifically, tissue resistance to elastase degradation after treatment with various reagents is discussed. Specifically, porcine carotid arteries were treated with saline (control, for 20 minutes), Glut (for 20 minutes), PGG (for 20 minutes), or a combination of the two (Glut+PGG for 20 minutes, or Glut for 10 minutes followed by a separate incubation with PGG for 10 minutes). Concentrations of the reagents used were 0.6% (w/v) for Glut, 0.15% (w/v) for PGG and 9 g/L for physiological saline.
The treated tissue was then exposed to an in vitro elastase digestion assay to subject the treated tissue to digestion for 24 hrs. Briefly, tissue samples were incubated individually with 1 mL of 3 units/mL porcine pancreatic elastase (Elastin Products Company; Owensville, Mo.) dissolved in 100 mM Tris buffer, 1 mM CaCl2, 0.02% NaN3, pH 7.8. Incubation with the elastase was conducted for 24 hrs at 37° C. with orbital shaking at 500 rpm. Because the values shown are percentage of digestion, the lower the value, the better the reagent used performed in resisting elastase degradation. […] It should be noted that the digestion model used in this experiment is a very accelerated and aggressive digestion model.

[3] = collagen crosslinking/stabilization; cited from earlier work

## O=CCCCC=O [Glut, Glutaraldehyde]
[1]
  percent of digested tissue (mass loss): over 20%
[2]
  percentage digestion by elastase (resistance to degradation): slightly improved the resistance of the tissue to degradation

## COC(=O)C1=CO[C@@H](O)[C@@H]2C(CO)=CC[C@H]12 [genipin, Genipin]
[3]
  toxicity: relatively non-toxic

— patent publication US20160136109A1, “COMPOSITIONS FOR TISSUE STABILIZATION” (Vatrix Medical, Inc., priority 2008, published 2016)
